Assays:
[1] = system: MDA-MB-435; experiment: Cytotoxicity against doxorubicin-resistant multidrug-resistant human MDA-MB-435 cells after 48 hrs by MTT assay; assay type: functional, cell-based; settings: MDA-MB-435, 48 h
[2] = system: HUVEC; experiment: Cellular uptake in human HUVEC cells at 5 uM after 2 hrs by FACS analysis; assay type: ADME, cell-based
[3] = system: MCF7; experiment: Cellular uptake in human MCF7 cells at 5 uM after 2 hrs by FACS analysis in presence of NH2-WxEYAAQkFL-CONH2; assay type: ADME, cell-based; settings: mcf7, 2 h
[4] = system: MDA-MB-435; experiment: Cytotoxicity against doxorubicin-resistant multidrug-resistant human MDA-MB-435 cells after 48 hrs by MTT assay in presence of verapamil; assay type: functional, cell-based; settings: MDA-MB-435, 48 h
[5] = system: MDA-MB-435; experiment: Cytotoxicity against human MDA-MB-435 cells after 48 hrs by MTT assay in presence of verapamil; assay type: functional, cell-based; settings: MDA-MB-435, 48 h
[6] = system: HUVEC; experiment: Cytotoxicity against human HUVEC cells after 48 hrs by MTT assay; assay type: cell-based
[7] = system: MCF-10A; experiment: Cytotoxicity against human MCF10A cells after 48 hrs by MTT assay; assay type: cell-based
[8] = system: MDA-MB-435; experiment: Cytotoxicity against human MDA-MB-435 cells after 48 hrs by MTT assay; assay type: functional, cell-based; settings: MDA-MB-435, 48 h
[9] = system: MDA-MB-435; experiment: Cellular uptake in human MDA-MB-435 cells at 5 uM after 2 hrs by FACS analysis relative to control; assay type: ADME, cell-based; settings: mda-mb-435, 2 h
[10] = system: MDA-MB-435; experiment: Cellular uptake in doxorubicin-resistant multidrug-resistant human MDA-MB-435 cells at 5 uM after 2 hrs by FACS analysis relative to doxorubicin; assay type: ADME, cell-based; settings: mda-mb-435, 2 h
[11] = system: MDA-MB-435; experiment: Ratio of IC50 for doxorubicin-resistant multidrug-resistant human MDA-MB-435 cells to IC50 for doxorubicin-resistant multidrug-resistant human MDA-MB-435 cells in presence of verapamil; assay type: functional
[12] = system: MCF7; experiment: Cytotoxicity against human MCF7 cells after 48 hrs by MTT assay; assay type: functional, cell-based; settings: MCF7, 48 h
[13] = system: MCF7; experiment: Cellular uptake in human MCF7 cells at 5 uM after 2 hrs by FACS analysis relative to control; assay type: ADME, cell-based; settings: mcf7, 2 h
[14] = system: MCF-10A; experiment: Cellular uptake in human MCF10A cells at 5 uM after 2 hrs by FACS analysis; assay type: ADME, cell-based
[15] = system: MDA-MB-435; experiment: Ratio of IC50 for human MDA-MB-435 cells to IC50 for human MDA-MB-435 cells in presence of verapamil; assay type: functional
[16] = system: MDA-MB-435; experiment: Cellular uptake in doxorubicin-resistant multidrug-resistant human MDA-MB-435 cells at 5 uM after 2 hrs by FACS analysis; assay type: ADME, cell-based; settings: mda-mb-435, 2 h
[17] = system: MDA-MB-435; experiment: Cytotoxicity against doxorubicin-resistant multidrug-resistant human MDA-MB-435 cells after 48 hrs by MTT assay relative to doxorubicin; assay type: functional
[18] = Half life in human serum at 100 uM after 48 hrs by RP-HPLC analysis; assay type: ADME, cell-free

| SMILES | IC50 [1] | Drug uptake [2] | Drug uptake [3] | IC50 [4] | IC50 [5] | IC50 [6] | IC50 [7] | IC50 [8] | Drug uptake [9] | fold change (FC) [10] | Ratio IC50 [11] | IC50 [12] | Drug uptake [13] | Drug uptake [14] | Ratio IC50 [15] | Drug uptake [16] | Ratio IC50 [17] | half-life at 100 µM [18] |
| --- | --- | --- | --- | --- | --- | --- | --- | --- | --- | --- | --- | --- | --- | --- | --- | --- | --- | --- |
| COc1cccc2c1C(=O)c1c(O)c3c(c(O)c1C2=O)C[C@@](O)(C(=O)CO)C[C@@H]3O[C@H]1C[C@H](N)[C@H](O)[C@H](C)O1 [DOXORUBICIN] | 21.9 µM | Active | Active | 1.56 µM | 0.15 µM | 1.1 µM | 1.2 µM | 0.6 µM | – | – | – | – | – | – | – | – | – | – |
| CCCC[C@@H](NC(=O)[C@@H](N)Cc1c[nH]c2ccccc12)C(=O)N[C@@H](CCC(=O)O)C(=O)N[C@@H](C)C(=O)N[C@@H](C)C(=O)N[C@@H](Cc1ccc(O)cc1)C(=O)N[C@@H](CCC(N)=O)C(=O)N[C@H](CCCCNC(=O)CCCC(=O)OCC(=O)[C@]1(O)Cc2c(O)c3c(c(O)c2[C@@H](O[C@H]2C[C@H](N)[C@H](O)[C@H](C)O2)C1)C(=O)c1c(OC)cccc1C3=O)C(=O)N[C@@H](Cc1ccccc1)C(=O)N[C@@H](CC(C)C)C(N)=O | 19.7 µM | Active | Active | 14.4 µM | 15.5 µM | 50.9 µM | 40.5 µM | 18.6 µM | Active | 3 | 1.3 | 19.1 µM | Active | Active | 1.3 | – | – | – |
| CCCC[C@@H](NC(=O)[C@@H](N)Cc1c[nH]c2ccccc12)C(=O)N[C@@H](CCC(=O)O)C(=O)N[C@@H](C)C(=O)N[C@@H](C)C(=O)N[C@@H](Cc1ccc(O)cc1)C(=O)N[C@@H](CCC(N)=O)C(=O)N[C@H](CCCCNC(=O)CCCC(=O)N[C@H]1C[C@H](O[C@H]2C[C@](O)(C(=O)CO)Cc3c(O)c4c(c(O)c32)C(=O)c2c(OC)cccc2C4=O)O[C@@H](C)[C@H]1O)C(=O)N[C@@H](Cc1ccccc1)C(=O)N[C@@H](CC(C)C)C(N)=O | 5.4 µM | Active | Active | 3.1 µM | 0.83 µM | 42.3 µM | 35.1 µM | 1.5 µM | Active | 4.7 | 1.3 | 0.9 µM | Active | Active | 1.3 | Active | >4 | 2 h |
